According to EP4817688A2, “DEGRADING PKCß1 TO TREAT CANCER” (Mayo Foundation for Medical Education and Research, priority 2020, dated 2022):

Legend:
Assay type in all cases: cell-based
MDAMB231 cells = experiment: crystal violet (CV) proliferation assay, MDAMB231; settings: Homo sapiens, MDA-MB-231, MDAMB231 (PKCβ1^high, Rb^positive) 2000 cells
Procedure: (§1) Cell proliferation rates were determined using crystal violet assays. One thousand cells per well were plated in 96 well tissue culture plates and treated the following day with a bifunctional compound or control for 7 days in replicates of 8. Cells were fixed with 25% glutaraldehyde for 10 minutes with shaking, washed 5 times with distilled water, stained with a 1% crystal violet solution (solubilized in 25% methanol) for 10 minutes, washed again 5 times and allowed to dry. De-staining was performed using […] sodium citrate in 50% ethanol followed by quantification using a 96 well spectrophotometer set at an absorbance of 550 nm.

BT549 cells = experiment: crystal violet (CV) proliferation assay, BT549; settings: Homo sapiens, BT-549, BT549 (PKCβ1^high, Rb^regative) 2000 cells
Procedure: as §1

MDAMB436 cells = experiment: crystal violet (CV) proliferation assay, MDAMB436; settings: Homo sapiens, MDA-MB-436, MDAMB436 (PKCβ1^low, Rb^negative) 2000 cells
Procedure: as §1

MDAH-2774 cells = experiment: crystal violet (CV) proliferation assay, MDAH-2774; settings: Homo sapiens; MDAH-2774 (PKCβ1^high) 1000 cells/well; read-out: Approximate IC50
Procedure: as §1
(§2) Based on the potent anti-proliferative activity of ENDX-PROTACs TC-Pr-006, TC-Pr-007, TC-Pr -008, and TC-Pr -009 in TNBC cells, the efficacy of these compounds for inhibiting the growth of ovarian cancer cells was tested. This analysis utilized KURAMOCHI cells, which represent the high-grade serous subtype (the most malignant form that accounts for 70% of all ovarian cancers and associates with poor clinical outcome) and MDAH-2774 cells, which represent endometrioid ovarian cancer and accounts for 20% of all ovarian cancer. PKCβ1 was confirmed to be expressed in both ovarian cancer cell line models, with MDAH-2774 cells expressing higher amounts of PKCβ1 compared to KURAMOCHI cells (FIG. 5A). […]

KURAMOCHI cells = experiment: crystal violet (CV) proliferation assay, KURAMOCHI; settings: KURAMOSHI (PKCβ1^low) 1000 cells/well; read-out: Approximate IC50
Procedure: as §1, §2

CC/C(=C(\c1ccc(O)cc1)c1ccc(OCCNC)cc1)c1ccccc1 [ENDX, endoxifen, reference compound]
IC50 (MDAMB231 cells): > 5 µM
IC50 (BT549 cells): > 5 µM
IC50 (MDAMB436 cells): > 5 µM
IC50 (MDAH-2774 cells): > 10 µM
IC50 (KURAMOCHI cells): > 10 µM
